From PubChem BioAssay (NCI)
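The compound was tested at five concentrations on cells cultured in 96-well plates, with a 48-hour exposure period. Abbreviation: GI50, concentration required for 50% inhibition of growth. TGI: total growth inhibition.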

What was measured:
Experiment in all cases: NCI tumour cell line growth inhibition, 48 h
BT-549 breast = test system: BT-549 breast
HCT-15 colon = test system: HCT-15 colon
HCC-2998 colon = test system: HCC-2998 colon
A498 renal = test system: A498 renal
HL-60(TB) leukemia = test system: HL-60(TB) leukemia
DU-145 prostate = test system: DU-145 prostate
K-562 leukemia = test system: K-562 leukemia
SNB-19 CNS = test system: SNB-19 CNS
A549 NSCLC = test system: A549 NSCLC
LOX IMVI melanoma = test system: LOX IMVI melanoma
SK-MEL-28 melanoma = test system: SK-MEL-28 melanoma
SF-539 CNS = test system: SF-539 CNS
SF-268 CNS = test system: SF-268 CNS
NCI-H23 lung = test system: NCI-H23 lung
SK-MEL-5 melanoma = test system: SK-MEL-5 melanoma
HS 578T breast = test system: HS 578T breast
HOP-92 NSCLC = test system: HOP-92 NSCLC
HCT-116 colon = test system: HCT-116 colon
MDA-MB-231 breast = test system: MDA-MB-231 breast
SK-OV-3 ovarian = test system: SK-OV-3 ovarian
786-0 renal = test system: 786-0 renal
M14 melanoma = test system: M14 melanoma
SR leukemia = test system: SR leukemia
UACC-62 melanoma = test system: UACC-62 melanoma
SNB-75 CNS = test system: SNB-75 CNS
KM12 colon = test system: KM12 colon
RXF 393 renal = test system: RXF 393 renal
PC-3 prostate = test system: PC-3 prostate
MDA-MB-435 = test system: MDA-MB-435
SN12C renal = test system: SN12C renal
NCI-H460 lung = test system: NCI-H460 lung
NCI/ADR-RES ovarian = test system: NCI/ADR-RES ovarian
OVCAR-3 ovarian = test system: OVCAR-3 ovarian
SK-MEL-2 melanoma = test system: SK-MEL-2 melanoma
SF-295 CNS = test system: SF-295 CNS
UO-31 renal = test system: UO-31 renal
MOLT-4 leukemia = test system: MOLT-4 leukemia
SW-620 colon = test system: SW-620 colon
IGROV1 ovarian = test system: IGROV1 ovarian
OVCAR-5 ovarian = test system: OVCAR-5 ovarian
EKVX NSCLC = test system: EKVX NSCLC
U251 CNS = test system: U251 CNS
OVCAR-4 ovarian = test system: OVCAR-4 ovarian
HT29 colon = test system: HT29 colon
OVCAR-8 ovarian = test system: OVCAR-8 ovarian
RPMI-8226 leukemia = test system: RPMI-8226 leukemia
MCF7 breast = test system: MCF7 breast
HOP-62 NSCLC = test system: HOP-62 NSCLC
T-47D breast = test system: T-47D breast
NCI-H226 lung = test system: NCI-H226 lung
TK-10 renal = test system: TK-10 renal
MALME-3M melanoma = test system: MALME-3M melanoma
CCRF-CEM leukemia = test system: CCRF-CEM leukemia
NCI-H522 lung = test system: NCI-H522 lung
UACC-257 melanoma = test system: UACC-257 melanoma

C[C@@H]1CN(C(=O)c2ccc(NC(=O)c3cc(O[C@H](C)c4c(Cl)ccc(F)c4Cl)c(N)nn3)cc2)C[C@H](C)N1
GI50 (BT-549 breast): 5.14 µM
TGI (BT-549 breast): 16.5 µM
GI50 (HCT-15 colon): 3.92 µM
TGI (HCT-15 colon): 15.1 µM
GI50 (HCC-2998 colon): 14.5 µM
TGI (HCC-2998 colon): 29.1 µM
GI50 (A498 renal): 1 µM
TGI (A498 renal): 5.33 µM
GI50 (HL-60(TB) leukemia): 1.21 µM
TGI (HL-60(TB) leukemia): 3.3 µM
GI50 (DU-145 prostate): 6.7 µM
TGI (DU-145 prostate): 19.2 µM
GI50 (K-562 leukemia): 0.37 µM
TGI (K-562 leukemia): 10.2 µM
GI50 (SNB-19 CNS): 5.41 µM
TGI (SNB-19 CNS): 18.1 µM
GI50 (A549 NSCLC): 3.03 µM
TGI (A549 NSCLC): 15.8 µM
GI50 (LOX IMVI melanoma): 1.46 µM
TGI (LOX IMVI melanoma): 3.04 µM
GI50 (SK-MEL-28 melanoma): 1.75 µM
TGI (SK-MEL-28 melanoma): 3.86 µM
GI50 (SF-539 CNS): 2.21 µM
TGI (SF-539 CNS): 5.07 µM
GI50 (SF-268 CNS): 4.5 µM
TGI (SF-268 CNS): 17.7 µM
GI50 (NCI-H23 lung): 3.17 µM
TGI (NCI-H23 lung): 20.6 µM
GI50 (SK-MEL-5 melanoma): 1.55 µM
TGI (SK-MEL-5 melanoma): 3.44 µM
GI50 (HS 578T breast): 3.02 µM
TGI (HS 578T breast): 21.9 µM
GI50 (HOP-92 NSCLC): 0.722 µM
TGI (HOP-92 NSCLC): 5.18 µM
GI50 (HCT-116 colon): 1.46 µM
TGI (HCT-116 colon): 10.7 µM
GI50 (MDA-MB-231 breast): 2.1 µM
TGI (MDA-MB-231 breast): 8 µM
GI50 (SK-OV-3 ovarian): 11.1 µM
TGI (SK-OV-3 ovarian): 23.1 µM
GI50 (786-0 renal): 4.63 µM
TGI (786-0 renal): 15.7 µM
GI50 (M14 melanoma): 1.55 µM
TGI (M14 melanoma): 3.19 µM
GI50 (SR leukemia): 0.0104 µM
TGI (SR leukemia): 2.78 µM
GI50 (UACC-62 melanoma): 1.7 µM
TGI (UACC-62 melanoma): 5.24 µM
GI50 (SNB-75 CNS): 2.8 µM
TGI (SNB-75 CNS): 11.1 µM
GI50 (KM12 colon): 0.0558 µM
TGI (KM12 colon): 13.5 µM
GI50 (RXF 393 renal): 1.93 µM
TGI (RXF 393 renal): 5.29 µM
GI50 (PC-3 prostate): 3.65 µM
TGI (PC-3 prostate): 16.7 µM
GI50 (MDA-MB-435): 1.88 µM
TGI (MDA-MB-435): 16.8 µM
GI50 (SN12C renal): 2.41 µM
TGI (SN12C renal): 13.6 µM
GI50 (NCI-H460 lung): 3.1 µM
TGI (NCI-H460 lung): 13.7 µM
GI50 (NCI/ADR-RES ovarian): 11.7 µM
TGI (NCI/ADR-RES ovarian): 31.1 µM
GI50 (OVCAR-3 ovarian): 6.44 µM
TGI (OVCAR-3 ovarian): 19 µM
GI50 (SK-MEL-2 melanoma): 5.57 µM
TGI (SK-MEL-2 melanoma): 19.6 µM
GI50 (SF-295 CNS): 1.11 µM
TGI (SF-295 CNS): 10.5 µM
GI50 (UO-31 renal): 3.26 µM
TGI (UO-31 renal): 14 µM
GI50 (MOLT-4 leukemia): 0.907 µM
TGI (MOLT-4 leukemia): 10.4 µM
GI50 (SW-620 colon): 2.29 µM
TGI (SW-620 colon): 12.6 µM
GI50 (IGROV1 ovarian): 4.38 µM
TGI (IGROV1 ovarian): 20.4 µM
GI50 (OVCAR-5 ovarian): 2.76 µM
TGI (OVCAR-5 ovarian): 17.6 µM
GI50 (EKVX NSCLC): 5.66 µM
TGI (EKVX NSCLC): 21.3 µM
GI50 (U251 CNS): 3.4 µM
TGI (U251 CNS): 12.9 µM
GI50 (OVCAR-4 ovarian): 8.84 µM
TGI (OVCAR-4 ovarian): 24.1 µM
GI50 (HT29 colon): 1.19 µM
TGI (HT29 colon): 3.46 µM
GI50 (OVCAR-8 ovarian): 7.16 µM
TGI (OVCAR-8 ovarian): 19.7 µM
GI50 (RPMI-8226 leukemia): 2.37 µM
TGI (RPMI-8226 leukemia): 8.17 µM
GI50 (MCF7 breast): 0.567 µM
TGI (MCF7 breast): 12.6 µM
GI50 (HOP-62 NSCLC): 2.5 µM
TGI (HOP-62 NSCLC): 14.4 µM
GI50 (T-47D breast): 4.51 µM
TGI (T-47D breast): 20.5 µM
GI50 (NCI-H226 lung): 3.9 µM
TGI (NCI-H226 lung): 22.5 µM
GI50 (TK-10 renal): 11.5 µM
TGI (TK-10 renal): 23.6 µM
GI50 (MALME-3M melanoma): 0.808 µM
TGI (MALME-3M melanoma): 2.94 µM
GI50 (CCRF-CEM leukemia): 1.78 µM
TGI (CCRF-CEM leukemia): 12 µM
GI50 (NCI-H522 lung): 3.1 µM
TGI (NCI-H522 lung): 12.2 µM
GI50 (UACC-257 melanoma): 1.39 µM
TGI (UACC-257 melanoma): 3.2 µM
